pIC50: −log10 of the molar value. Values after ≈ are worked out from the molar mass of the structure shown.
Columns and labels:
O. bicornis [1] = assay: Acute contact toxicity bioassay; format: in vivo, Osmia bicornis; conditions: for LD50: acute contact, applied to dorsal thorax, thiacloprid limit test 100 μg/bee; for toxicity classification according to U.S. EPA categories: contact exposure
Experimental: O. bicornis cocoons were purchased from Dr Schubert Plant Breeding (Landsberg, Germany) and stored at 4°C in constant darkness. To trigger emergence cocoons were transferred to an incubator (25°C, 55% RH, L16:D8) with emerged bees fed ab libitum with Biogluc (62% sugar concentration consisting of 37.5% fructose, 34.5% glucose, 25% sucrose, 2% maltose, and 1% oligosaccharides) (Biobest), soaked into a piece of cotton wool inside a plastic dish. Males (which are usually first to emerge) were removed from cages and discarded to reduce any unnecessary stress to the females used in insecticide bioassays.
(§1) Acute contact toxicity bioassays on unmated 2 day old female O. bicornis were conducted following the OECD Honey Bee Test guidelines, with modification where necessary. Bees were anaesthetised with CO2 for 5–10 seconds to allow application of insecticide. 1 μL of technical grade imidacloprid was applied to the dorsal thorax of each bee at concentrations of 0.0001, 0.001, 0.01, 0.1, 1, and 10 μg/μL. No mortality was observed using the same concentrations of thiacloprid so a limit test of 100 μg/bee was performed. Control bees were treated with 1 μL 100% acetone. Three replicates of 10 bees were tested for each concentration. Tested individuals were placed back into cages in the incubator (25°C, 55% RH, L16:D8), with five bees per cage. In piperonyl butoxide (PBO) synergist bioassays, bees were first treated with the maximum sublethal dose (in this case 100 μg/μL) of PBO followed by insecticide one hour later. Synergist bioassays included an additional control group treated only with PBO. Mortality was assessed 48 and 72 hours after application. Probit analysis was used to calculate the LD50 values, slope, and synergism ratio (where relevant) for each insecticide (Genstat v.18 (VSNI 2015)).

O. bicornis [2] = assay: Sublethal dose (LD10) used for oral exposure; format: in vivo, Osmia bicornis; conditions: used as sublethal dose, supplied orally in 50% sucrose
Experimental: To examine if P450 expression in O. bicornis is induced by exposure to sublethal concentrations of neonicotinoids, imidacloprid and thiacloprid were dissolved in acetone to the highest concentration possible, before being diluted to the LD10 of imidacloprid (0.0001 μg/bee) and thiacloprid (0.01 μg/bee) with 50% sucrose (w/v) in order to limit the amount of acetone consumed by bees. Prior to commencing oral bioassays bees underwent a 24 hour ‘training’ period in the Nicot cages to enable them to learn to feed from the syringes. This was followed by a 16h starvation period to encourage subsequent feeding. 15μL of the insecticide/sucrose solution was supplied orally to the bees in disposable plastic syringes. Control bees were fed 15μL of a sucrose solution containing the same volume of acetone used to make up the insecticide/sucrose solutions. When all of the solution had been consumed the bees were fed ab libitum with a 50% sucrose solution for 24 h. After this period for each condition four replicates comprising 5 bees per replicate were snap frozen in liquid nitrogen and RNA extracted from each replicate as above. RNA was used as a template for the generation of barcoded libraries (TrueSeq RNA library preparation, Illumina) which were sequenced across two lanes of an Illumina HiSeq2500 flowcell (100 bp paired end reads). Sequencing was carried out by Earlham Institute, Norwich, UK. […]

O. bicornis [3] = assay: PBO (piperonyl butoxide) synergist bioassay; format: in vivo, Osmia bicornis; conditions: with vs without PBO pre-treatment one hour before insecticide
Experimental: as §1

O. bicornis cuticle = assay: Cuticular penetration of radiolabelled insecticide (pharmacokinetic study); format: in vivo, Osmia bicornis; conditions: 24 h after application to dorsal thorax
Experimental: Bees were anaesthetised with CO2 for 5–10 seconds to allow application of insecticide. 5,000 ppm of [^14C]imidacloprid or [^14C]thiacloprid was applied to the dorsal thorax of each bee using a Hamilton repeating dispenser. Three replicates of five bees were placed into cages and fed a 50% sucrose solution from vertically hanging 2 ml syringes. Control bees were treated with acetone. Radiolabelled insecticide was rinsed off of each group of bees at set time intervals (0, 2, 4 and 24 hours after application) with acetonitrile water (90:10) three times. The […] bees were then individually combusted at 900°C in an Ox 120c oxidizer (Harvey Instruments Co., USA) followed by liquid scintillation counting of the released ^14CO2 in an alkaline scintillation cocktail (Ultima Gold, PerkinElmer) using a liquid scintillation analyser (Perkin Elmer Tri-Carb 2910 TR). The levels of excreted [^14C]imidacloprid or [^14C]thiacloprid, and/or metabolites, were measured by wiping cages with filter papers dipped in acetone and 0.5 mL aliquots of cuticular rinse or filter papers were added to 3 mL of scintillation fluid cocktail and the radioactivity was quantified by liquid scintillation analysis as above. An unpaired t-test was used to compare the penetration of the two compounds at each time point.

[4] = test system: Drosophila melanogaster control line; assay: in vivo; conditions: for RR (resistance ratio): Control strain (reference); for Slope (+/- SE): log-dose probit mortality, Control strain
Experimental: (§2) CYP9BU1 and CYP9BU2 were codon optimised for D. melanogaster expression and cloned into the pUASTattB plasmid (GenBank: EF362409.1). These constructs were used to create transgenic fly lines, which were then tested in insecticide bioassays against imidacloprid and thiacloprid, as described previously.

in vivo = conditions: in vivo; Control strain
Experimental: as §2

O. bicornis nAChRs = assay: Radioligand competition binding, [3H]imidacloprid displacement from head membrane preparations; set-up: species or system Osmia bicornis; conditions: 576 pM radioligand, 60 min room temperature
Experimental: [^3H]imidacloprid (specific activity 1.406 GBq μmol^−1) displacement studies were conducted using membrane preparations isolated from frozen (−80°C) O. bicornis heads, following previously published protocols. Briefly, bee heads weighing 10 g were homogenized in 200 ml ice-cold 0.1 M potassium phosphate buffer, pH 7.4 containing 95 mM sucrose using a motor-driven Ultra Turrax blender. […] Assays were performed in a 96-well microtitre plate with bonded GF/C filter membrane (Packard UniFilter-96, GF/C) and consisted of 200 μl of homogenate (0.48 mg protein), 25 μl of [^3H]imidacloprid (576 pM) and 25 μl of competing ligand. Ligand concentrations used ranged from 0.001 to 10 000 nM and were tested in triplicate per competition assay. The assay was started by the addition of homogenate and incubated for 60 min at room temperature. Bound [^3H]imidacloprid was quantified by filtration into a second 96-well filter plate (conditioned with ice-cold 100 mM potassium phosphate buffer, pH 7.4 (including BSA 5 g litre−1)) using a commercial cell harvester (Brandel). […] Each well was then loaded with 25 μl of scintillation cocktail (Microszint-O-Filtercount, Packard) and the plate counted in a Topcount scintillation counter (Packard). Non-specific binding was determined using a final concentration of 10 μM unlabelled imidacloprid. […]

[5] = test system: adult female O. bicornis gene expression; assay: RNAseq of bees after sublethal oral neonicotinoid exposure (P450 induction); format: in vivo, Osmia bicornis; conditions: for induction of P450 expression: 24 h after exposure to LD10; for number of genes significantly upregulated: 24 h after exposure to LD10, corrected p <0.05 vs solvent control
Experimental: To examine if P450 expression in O. bicornis is induced by exposure to sublethal concentrations of neonicotinoids, imidacloprid and thiacloprid were dissolved in acetone to the highest concentration possible, before being diluted to the LD10 of imidacloprid (0.0001 μg/bee) and thiacloprid (0.01 μg/bee) with 50% sucrose (w/v) in order to limit the amount of acetone consumed by bees. Prior to commencing oral bioassays bees underwent a 24 hour ‘training’ period in the Nicot cages to enable them to learn to feed from the syringes. This was followed by a 16h starvation period to encourage subsequent feeding. 15μL of the insecticide/sucrose solution was supplied orally to the bees in disposable plastic syringes. Control bees were fed 15μL of a sucrose solution containing the same volume of acetone used to make up the insecticide/sucrose solutions. When all of the solution had been consumed the bees were fed ab libitum with a 50% sucrose solution for 24 h. After this period for each condition four replicates comprising 5 bees per replicate were snap frozen in liquid nitrogen and RNA extracted from each replicate as above. RNA was used as a template for the generation of barcoded libraries (TrueSeq RNA library preparation, Illumina) which were sequenced across two lanes of an Illumina HiSeq2500 flowcell (100 bp paired end reads). Sequencing was carried out by Earlham Institute, Norwich, UK. To identify genes differentially expressed between control and the treatment the Tuxedo workflow was used to map with TopHat against the annotated reference genome, to estimate gene expression with Cufflinks and test for differential expression with Cuffdiff.

CYP9BU2 [6] = assay: Insecticide bioassay on transgenic flies expressing CYP9BU2; format: in vivo, Drosophila melanogaster; conditions: transgenic line expressing CYP9BU2, Drosophila melanogaster, in vivo; CYP9BU2 strain
Experimental: as §2

[7] = test system: transgenic Drosophila melanogaster expressing CYP9BU2; assay: as above; format: in vivo; conditions: for RR (resistance ratio): CYP9BU2 strain vs control line; for sensitivity relative to control flies: flies expressing CYP9BU2 vs control flies without transgene
Experimental: as §2

CYP9BU1 [8] = assay: Metabolism assay with recombinant P450/CPR microsomes, UPLC-MS/MS; conditions: for metabolism to 5-hydroxy form: 25 μM insecticide, 5 pmol P450, NADPH, 1 hour, 30°C
Excerpt: (§3) O. bicornis P450 genes and house fly NADPH-dependent cytochrome P450 reductase (CPR) (GenBank accession no. Q07994) genes were codon optimised for expression in lepidopteran cell lines, synthesized (Geneart, CA, USA) and inserted into the pDEST8 expression vector (Invitrogen). The PFastbac1 vector with no inserted DNA was used to produce a control virus. The recombinant baculovirus DNA was constructed and transfected into Trichoplusia ni (High five cells, Thermo Fisher) using the Bac-to-Bac baculovirus expression system (Invitrogen) according to the manufacturer’s instructions. The titre of the recombinant virus was determined following protocols of the supplier. High Five cells grown to a density of 2 x 10^6 cells ml^-1 were co-infected with recombinant baculoviruses containing each bee P450 and CPR with a range of MOI (multiplicity of infection) ratios to identify the optimal conditions. Control cells were co-infected with the baculovirus containing vector with no insert (ctrl-virus) and the recombinant baculovirus expressing CPR using the same MOI ratios. Ferric citrate and δ-aminolevulinic acid hydrochloride were added to a final concentration of 0.1 mM at the time of infection and 24 h after infection to compensate the low levels of endogenous heme in the insect cells. After 48 h, cells were harvested, washed with PBS, and microsomes of the membrane fraction prepared according to standard procedures and stored at −80°C [41]. Briefly, pellets were homogenised for 30 s in 0.1 M Na/K-phosphate buffer, pH 7.4 containing 1 mM EDTA and DTT and 200 mM sucrose using a Fastprep (MP Biomedicals), filtered through miracloth and centrifuged for 10 min at 680g at 4°C. The supernatant was then centrifuged for 1 h at 100,000g at 4°C, with the pellet subsequently resuspended in 0.1M Na/K-phosphate buffer pH 7.6 containing 1 mM EDTA and DTT and 10% glycerol using a Dounce tissue grinder. P450 expression and functionality was estimated by measuring CO-difference spectra in reduced samples using a Specord 200 Plus Spectrophotometer (Analytik Jena) and scanning from 500 nm to 400 nm. The protein content of samples was determined using Bradford reagent (Sigma) and bovine serum albumin (BSA) as a reference.
(§4) Metabolism of thiacloprid and imidacloprid was assessed by incubating recombinant P450/CPR (5 pmol/well) or control virus/CPR (5 pmol/well) with each insecticide (25 μM) in the presence of an NADPH regeneration system at 30±1°C, shaking, for 1 hour. […] The peak integrals were calibrated externally against a standard calibration curve.

CYP9BU2 [9] = assay: as above; conditions: for metabolism to 5-hydroxy form: 25 μM insecticide, 5 pmol P450, NADPH, 1 hour, 30°C
Excerpt: as §3, §4

CYP9BU1 [10] = assay: Insecticide bioassay on transgenic flies expressing CYP9BU1; format: in vivo, Drosophila melanogaster; conditions: transgenic line expressing CYP9BU1, Drosophila melanogaster, in vivo; CYP9BU1 strain
Experimental: as §2

[11] = test system: transgenic Drosophila melanogaster expressing CYP9BU1; assay: as above; format: in vivo; conditions: for RR (resistance ratio): CYP9BU1 strain vs control line; for sensitivity relative to control flies (less sensitive): flies expressing CYP9BU1 vs control flies without transgene
Experimental: as §2

[12] = production of hydroxy metabolite per pmol P450

Row | SMILES | LD50 (O. bicornis [1]; adult female bees) | toxicity classification according to U.S. EPA categories (O. bicornis [1]) | LD10 (O. bicornis [2]) | change in sensitivity after PBO pre-treatment (O. bicornis [3]) | final uptake through the cuticle (O. bicornis cuticle) | RR (resistance ratio) [4] | Slope (+/- SE) [4] | LC50 (in vivo) | pIC50 (O. bicornis nAChRs) | induction of P450 expression [5] | number of genes significantly upregulated [5] | LC50 (CYP9BU2 [6]) | RR (resistance ratio) [7] | sensitivity relative to control flies [7] | metabolism to 5-hydroxy form (CYP9BU1 [8]) | metabolism to 5-hydroxy form (CYP9BU2 [9]) | LC50 (CYP9BU1 [10]) | RR (resistance ratio) [11] | sensitivity relative to control flies (less sensitive) [11] | also measured
1 | N#C/N=C1\SCCN1Cc1ccc(Cl)nc1 [thiacloprid] | > 100 μg/bee | practically non-toxic | 0.01 μg/bee | > 7 fold | 28% | 1 | 1.2 +/- 0.14 | 17 µg/mL (≈ 67.4 µM) | 8.62 | no P450 showed a significant increase in expression | 16 genes | 17.5 µg/mL (≈ 69.2 µM) | 1.1 | no significant resistance | metabolise these compounds to their hydroxylated forms | metabolise these compounds to their hydroxylated forms | 65.7 µg/mL (≈ 260 µM) | 3.8 | ~ 4 times | mortality (O. bicornis [1]; 1 μL at 0.0001-10 μg/μL, contact): No mortality; efficiency of metabolism relative to imidacloprid (CYP9BU1 [8]; [12]): significantly greater efficiency than imidacloprid; efficiency of metabolism relative to imidacloprid (CYP9BU2 [9]; [12]): significantly greater efficiency than imidacloprid
2 | O=[N+]([O-])NC1=NCCN1Cc1ccc(Cl)nc1 [imidacloprid] | 0.046 μg/bee | highly toxic | 0.0001 μg/bee | No significant difference | 27% | 1 | 1.7 +/- 0.12 | 165 µg/mL (≈ 645 µM) | 8.08 | no P450 showed a significant increase in expression | 27 genes | 135 µg/mL (≈ 530 µM) | 0.8 | no significant differences in sensitivity | metabolise these compounds to their hydroxylated forms | metabolise these compounds to their hydroxylated forms | 85.9 µg/mL (≈ 336 µM) | 0.5 | no significant differences in sensitivity | fold more sensitive to imidacloprid than thiacloprid (O. bicornis [1]; adult female bees, ratio of contact LD50): > 2,000 fold; Slope (+/- SE) ([7]; log-dose probit mortality, CYP9BU2 strain): 1.5 +/- 0.14; Slope (+/- SE) ([11]; log-dose probit mortality, CYP9BU1 strain): 1.3 +/- 0.13

From PMC6375640, “Genomic insights into neonicotinoid sensitivity in the solitary bee Osmia bicornis” (PLoS Genetics, 2019)
